The values below come from patent US5582837A, “Alkyl-substituted cellulose-based sustained-release oral drug dosage forms” (priority 1995, dated 1996).

The data set relates to isolated colon section. Conditions: rabbit, in vivo.

Procedure: Each rabbit was anesthetized using an intramuscular injection of xylazine and ketamine, given at 5-8 mg/kg and 35-40 mg/kg, respectively. The abdomen and the cervical area was then shaved. A surgical cutdown was performed to place a catheter into the jugular vein for maintaining anesthesia throughout the entire exposure period. The maintenance anesthesia was sodium pentobarbitol given at 13 mg/kg as needed. An endotracheal tube was then inserted to facilitate normal respiration.
In the anesthetized animal model a section of the colon, immediately proximal to the cecum, was isolated with the mesenteric vascular system intact. Two ligatures were placed approximately 15-20 cm apart around the colon section. The isolated section was then freed from the remaining intestine by cutting between the ligatures, taking care to leave the vascular and nervous systems intact. A longitudinal incision was made along the entire length of the isolated colon section and the fecal material removed. The isolated colon section is then placed onto a three-cell test chamber which forms the floor of the test cell. The test cell is continuously perfused with Lactated Ringer's solution at a rate of 2.2 ml per minute using a Model 975 Harvard pump. The test chamber is allowed to equilibrate for one hour to maintain a constant temperature of 37° C. (±2° C.). […]
A quantity of the test material was chosen such that the total milligram amount of aspirin delivered over the 6-hour exposure period was equal to the total dose of aspirin provided by the positive control.
After 6 hours of continuous exposure, each rabbit was euthanized using an intravenous injection of sodium pentobarbitol given at approximately 100 mg/kg. The isolated section of exposed colon was removed from the intestine and evaluated for macroscopic evidence of irritation for both degree (0-4) and area (0-6.40 cm^2). […]

For the compound `CC(=O)Oc1ccccc1C(=O)O` [Aspirin, aspirin], the “Mean Irritation Area” value was found to be 4.48 cm^2, the “Mean Irritation Index” value amounted to 17.93 and the “Mean Irritation Source” value turned out to be 4.00.
